Test results as given in US20140228278A1, “ANTIBIOTICS AND METHODS FOR MANUFACTURING THE SAME” (priority 2011, published 2014).
≈ marks a conversion by molar mass, not a printed value.

Assays:
[1] = test system: B. anthracis strain Sterne; type: cell-based, Bacillus anthracis
B. amylo. (NRRL B-14393) = type: cell-based, Bacillus amyloliquefaciens
Bacillus subtilis CU1065 = assay: Agar bioassay, growth suppression seen as clear zone; type: cell-based; design: key: ++: inhibition; +: weak inhibition; −: no inhibition; conditions: indicator strain Bacillus subtilis CU1065
B. amylo. FZB42 = type: cell-based, Bacillus amyloliquefaciens
Bacillus sphaericus = type: cell-based; design: key: ++: inhibition; +: weak inhibition; −: no inhibition
Bacillus brevis ATCC8246 = type: cell-based; design: key: ++: inhibition; +: weak inhibition; −: no inhibition
Streptococcus pyogenes = type: cell-based
Bacillus subtilis 168 = assay: Agar bioassay, growth suppression seen as clear zone; type: cell-based; design: key: ++: inhibition; +: weak inhibition; −: no inhibition; conditions: indicator strain Bacillus subtilis 168
[2] = test system: any other tested bacterium; type: cell-based
[3] = test system: Paenibacillus granivorans; type: cell-based; design: key: ++: inhibition; +: weak inhibition; −: no inhibition
[4] = test system: Staphylococcus aureus st. NRS384/USA300 [MRSA]; type: cell-based
Klebsiella terrigena = assay: Agar bioassay, growth suppression seen as clear zone; type: cell-based; design: key: ++: inhibition; +: weak inhibition; −: no inhibition; conditions: indicator strain Klebsiella terrigena
[5] = test system: B. anthracis strain Sterne; type: cell-based, Bacillus anthracis; remark: listed apart in the source
[6] = test system: Enterococcus faecalis st. U503 [VRE]; type: cell-based
B. pumilus ATCC 7061 = type: cell-based, Bacillus pumilus
[7] = test system: Bacillus licheniformis ATCC9789; type: cell-based; design: key: ++: inhibition; +: weak inhibition; −: no inhibition
Micrococcus luteus = type: cell-based; design: key: ++: inhibition; +: weak inhibition; −: no inhibition
Bacillus subtilis HB0042 = assay: Agar bioassay, growth suppression seen as clear zone; type: cell-based; design: key: ++: inhibition; +: weak inhibition; −: no inhibition; conditions: indicator strain Bacillus subtilis HB0042
Listeria monocytogenes = type: cell-based
E. coli K12 = assay: Agar bioassay, growth suppression seen as clear zone; type: cell-based; design: key: ++: inhibition; +: weak inhibition; −: no inhibition; conditions: indicator strain E. coli K12
Bacillus megaterium 7A1 = type: cell-based; design: key: ++: inhibition; +: weak inhibition; −: no inhibition
[8] = test system: Bacillus cereus ATCC14579; type: cell-based; design: key: ++: inhibition; +: weak inhibition; −: no inhibition
Pseudomonas sp. = assay: Agar bioassay, growth suppression seen as clear zone; type: cell-based; design: key: ++: inhibition; +: weak inhibition; −: no inhibition; conditions: indicator strain Pseudomonas sp.
Paenibacillus polymyxa = type: cell-based; design: key: ++: inhibition; +: weak inhibition; −: no inhibition
Arthrobacter sp. = type: cell-based; design: key: ++: inhibition; +: weak inhibition; −: no inhibition
Staphylococcus aureus = assay: Agar bioassay, growth suppression seen as clear zone; type: cell-based; design: key: ++: inhibition; +: weak inhibition; −: no inhibition; conditions: indicator strain Staphylococcus aureus
B. anthracis = type: cell-based, Bacillus anthracis
Erwinia caratovora = type: cell-based; design: key: ++: inhibition; +: weak inhibition; −: no inhibition
Bacillus pumilus = type: cell-based; design: key: ++: inhibition; +: weak inhibition; −: no inhibition

## CC[C@H](C)[C@H](NC(=O)c1nc(-c2nc(-c3csc(-c4nc(-c5csc(C(CCCN=C(N)N)N(C)C)n5)oc4C)n3)oc2C)oc1C)C(=O)N[C@H](c1nc(-c2nc(-c3nc(-c4nc(C5=NC(C(=O)N[C@@H](Cc6ccccc6)C(=O)O)C(C)O5)co4)co3)co2)co1)[C@@H](C)CC (stereo partly drawn) [PZN, plantazolicin]
[1]
  Mode of action (bactericidal) on reculturing of treated cells in the absence of PZN: bactericidal
B. amylo. (NRRL B-14393)
  Susceptibility to the action of PZN: completely resistant
Bacillus subtilis CU1065
  Degree of inhibition in a bioassay: +
B. amylo. FZB42
  Susceptibility to the action of PZN: no observable inhibition
Bacillus sphaericus
  Degree of inhibition in a bioassay: +
Bacillus brevis ATCC8246
  Degree of inhibition in a bioassay: +
Streptococcus pyogenes
  Growth inhibition in microbroth dilution bioassay: only inhibited by very high concentrations
Bacillus subtilis 168
  Degree of inhibition in a bioassay: +
[2]
  Inhibition zones in agar diffusion bioassay: inhibition zones were not observed
[3]
  Degree of inhibition in a bioassay: +
[4]
  Growth inhibition in microbroth dilution bioassay: unaffected
Klebsiella terrigena
  Degree of inhibition in a bioassay: −
[5]
  Growth inhibition / activity against B. anthracis in microbroth dilution bioassay: potent growth inhibition
  MIC99: 4 µg/mL (≈ 2.99 µM)
[6]
  Growth inhibition in microbroth dilution bioassay: unaffected
B. pumilus ATCC 7061
  Susceptibility to the action of PZN: no observable inhibition
[7]
  Degree of inhibition in a bioassay: +
Micrococcus luteus
  Degree of inhibition in a bioassay: +
Bacillus subtilis HB0042
  Degree of inhibition in a bioassay: ++
Listeria monocytogenes
  Growth inhibition in microbroth dilution bioassay: unaffected
E. coli K12
  Degree of inhibition in a bioassay: −
Bacillus megaterium 7A1
  Degree of inhibition in a bioassay: ++
[8]
  Degree of inhibition in a bioassay: +
Pseudomonas sp.
  Degree of inhibition in a bioassay: −
Paenibacillus polymyxa
  Degree of inhibition in a bioassay: −
Arthrobacter sp.
  Degree of inhibition in a bioassay: −
Staphylococcus aureus
  Degree of inhibition in a bioassay: −
B. anthracis
  Cell morphology by DIC microscopy: massive lysis
Erwinia caratovora
  Degree of inhibition in a bioassay: −
Bacillus pumilus
  Degree of inhibition in a bioassay: −
